Laboratory results published in patent US20240408107A1, “LACTAM PYRROLIDINE-PYRAZOLES AS PYRUVATE KINASE ACTIVATORS” (Global Blood Therapeutics, Inc., priority 2021, published 2024).

Legend:
[1] = test system: PK activity, ATP levels, RBC parameters; details: mouse model of beta-thalassemia; cited from earlier work
[2] = molecular target: T1, human pyruvate kinase R (PKR) (Homo sapiens, UniProt P30613); experiment: Biochemical assay for activation of pyruvate kinase R (Kinase-Glo luminescence, ATP generation); details: for AC50: PKR biochemical assay, 0.1 nM PKR; for Emax: maximal activation level relative to the activation level achieved by AG-348 @ 10 μM
T1 construct: Human pyruvate kinase R (PKR), residues 14-574; 6xHis (N, cleaved yes); 8xArg (N, cleaved yes); SUMO (N, cleaved yes); host or cells: E. coli
T1 sequence (P30613 14-574): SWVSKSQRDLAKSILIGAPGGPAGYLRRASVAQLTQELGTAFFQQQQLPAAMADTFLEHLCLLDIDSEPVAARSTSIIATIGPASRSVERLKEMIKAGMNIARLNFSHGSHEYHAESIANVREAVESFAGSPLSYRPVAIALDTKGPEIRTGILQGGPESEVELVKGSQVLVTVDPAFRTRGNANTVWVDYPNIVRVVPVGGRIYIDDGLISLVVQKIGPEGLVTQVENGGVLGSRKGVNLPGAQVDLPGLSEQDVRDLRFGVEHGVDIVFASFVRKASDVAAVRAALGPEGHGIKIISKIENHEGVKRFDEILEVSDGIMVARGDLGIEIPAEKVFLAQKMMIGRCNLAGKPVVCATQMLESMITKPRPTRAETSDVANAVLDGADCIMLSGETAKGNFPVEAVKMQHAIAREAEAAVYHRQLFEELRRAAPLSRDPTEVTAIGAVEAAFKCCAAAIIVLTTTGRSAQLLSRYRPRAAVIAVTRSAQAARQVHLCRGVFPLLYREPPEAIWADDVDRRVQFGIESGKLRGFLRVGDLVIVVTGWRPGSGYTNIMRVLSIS
Method: Human pyruvate kinase R (PKR), residues 14-574, and human pyruvate kinase M2, residues 1-531, were cloned into expression plasmids and obtained from ATUM Bio (Newark, CA). Proteins were translated as fusions with 6×-His,8×-Arg, and SUMO at the N-terminus. A third construct of human PKR was truncated, residues 50-574, and similarly cloned for use in crystallography experiments. All proteins were cloned, expressed in E. coli, and purified using similar protocols. Cells were grown at 30° C. in Luria-Bertani broth supplemented with 0.4% glucose to OD600=0.8 and induced with 0.4 mM IPTG at 16° C. for 18 hours. Cells were harvested by centrifugation, resuspended in 50 mM potassium phosphate pH 8.0, 500 mM NaCl, 25 mM imidazole pH 8.0, and 3 mM β-mercaptoethanol. Cells were lysed using a LM20 microfluidizer from Microfluidics (Westwood, MA). The crude lysate was immediately supplemented with 0.2 mM phenylmethylsulfonyl fluoride (PMSF) and centrifuged at 20,000 g for 20 minutes. The soluble fraction was subsequently incubated with 2 mL Ni-NTA (GE Healthcare) per 1,000 ODs for 1 hour at 4° C. Following incubation with the Ni-NTA resin, lysate was removed by pelleting resin at 2,500 g for 3 minutes and washed 3 times with 9 bed volumes of 50 mM potassium phosphate pH 8.0, 500 mM NaCl, 25 mM imidazole, and 3 mM β-mercaptoethanol. Following the batch wash Ni-NTA resin was loaded onto a gravity column and His-tagged protein was eluted with 6 bed volumes of 10 mM Tris/HCl pH 8.0, 200 mM NaCl, 500 mM imidazole, and 3 mM β-mercaptoethanol. Eluted protein was dialyzed overnight against 10 mM Tris/HCl pH 8.0, 200 mM NaCl, and 1 mM DTT and the 6×-His-8×-Arg-SUMO-tag was cleaved using a 20:1 molar ratio of protein:3C protease. The protein was purified by anion exchange chromatography on a HiTrapQ or MonoQ 10/100 GL column (GE Healthcare) via a linear NaCl gradient and twice by size exclusion chromatography using a Superdex S200 26/60 column (GE Healthcare) run in 10 mM Tris/HCl pH 8.0, 200 mM NaCl, 10 mM MgCl2, 1 mM DTT. Proteins were concentrated to ˜12 mg/mL for crystallization and flash frozen for storage.
Activation of pyruvate kinase R (PKR) and pyruvate kinase M2 (PKM2) were measured using a luminescence based measurement of ATP generation and the Kinase-Glo luminescent kinase reagent kit. 0.1 nM of PKR or PKM2 was incubated for 1 hour with 0.3 mM ADP, 2 mM FBP, 1% DMSO, compound and Assay Buffer mix (500 mM Tris/HCl pH 7.5, 500 mM NaCl, 50 mM MgCl2, BSA, and 2 mM DTT, in a total reaction volume of 30 uL. After one hour PEP was added to the reaction at a final concentration of 0.1 mM and incubated for another hour at room temperature. 30 uL of KinaseGlo reagent was added and the reaction was incubated for 15 minutes. Endpoint luminescence data was measured using an EnVision plate reader (PerkinElmer). The assay results are provided in Table 2 for PKR.

[3] = molecular target: T2, Pyruvate Kinase M2 (PKM2) in H1299 cells (Homo sapiens, UniProt P14618); experiment: Cell based assay for activation of pyruvate kinase M2 in lung carcinoma cell line (H1299, NADH/LDH coupled assay of lysate); details: PKM2 cellular assay; for AC50: H1299 cells, 90 minutes with compound; for PKM2 % activation: maximal activation level relative to the activation level achieved by AG-348 @ 10 μM
T2 construct: endogenous in cells; host or cells: H1299 cells
T2 sequence (P14618 2-531 limits assumed): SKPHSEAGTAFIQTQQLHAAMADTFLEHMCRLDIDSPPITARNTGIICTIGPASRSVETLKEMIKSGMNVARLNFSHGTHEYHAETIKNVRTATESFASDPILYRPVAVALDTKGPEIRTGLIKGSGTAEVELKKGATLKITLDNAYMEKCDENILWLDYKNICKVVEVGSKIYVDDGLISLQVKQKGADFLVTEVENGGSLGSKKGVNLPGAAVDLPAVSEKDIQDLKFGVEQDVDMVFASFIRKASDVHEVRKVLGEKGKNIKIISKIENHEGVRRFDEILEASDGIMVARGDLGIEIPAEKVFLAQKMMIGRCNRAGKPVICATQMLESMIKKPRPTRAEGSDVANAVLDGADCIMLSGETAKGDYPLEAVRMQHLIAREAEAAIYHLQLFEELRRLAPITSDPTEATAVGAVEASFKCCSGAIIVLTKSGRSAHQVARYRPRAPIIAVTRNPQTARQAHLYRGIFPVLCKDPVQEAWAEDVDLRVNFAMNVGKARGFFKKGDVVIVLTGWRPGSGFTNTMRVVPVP
Method: H1299 cells were seeded in 96-well plates at 2,000 cells/well (100 uL). Treated plates were incubated overnight at 37° C. with 5% CO2. Compounds were diluted in complete media and added to cells in the presence of 1% DMSO. Cells were incubated with compound for 90 minutes at 37° C. and 5% CO2 before washing three times with PBS to remove residual compound and then lysed in lysis buffer (Cell Signaling). Cell lysate was analyzed using the NADH coupled assay described below with a reaction mixture of 180 uM NADH, 2 mM ADP, 0.5 units of LDH and 0.5 mM of PEP. PKM2 activity was measured at steady state using a coupled enzyme activation system based on NADH consumption. PKM2 produces pyruvate and the coupled system uses lactate dehydrogenase (LDH) to reduce pyruvate to lactate with the concomitant oxidation of NADH to NAD^+. Conversion of NADH to NAD^+ was monitored using a SPECTROstar Nano plate reader (BMG Labtech) at a wavelength of 340 nm and subtraction of background absorbance measured at 750 nm. The change in NADH absorbance after PEP addition was monitored and slope obtained by subtracting baseline at 750 nm followed by least squares fitting to a simple linear regression model. A 10-point curve was generated to calculate the AC50 values by fitting the rates of NADH consumption against increasing concentration of compound.

Structure (SMILES) | PK activity and ATP levels [1] | RBC parameters [1] | AC50 [2] | Emax [2] | AC50 [3] | PKM2 % activation [3]
O=C(c1ccc(NS(=O)(=O)c2cccc3cccnc23)cc1)N1CCN(CC2CC2)CC1 [AG-348, Mitapivat] | increased | improved | – | – | – | –
O=C1Nc2ccccc2C1CC(=O)N1Cc2cn(S(=O)(=O)c3cnn(CC(F)F)c3)nc2C1 (stereo not drawn) [Compound 1, 3-[2-(2-{[1-(2,2-difluoroethyl)-1H-pyrazol-4-yl]sulfonyl}-2H,4H,5H,6H-pyrrolo[3,4-c]pyrazol-5-yl)-2-oxoethyl]-2,3-dihydro-1H-indol-2-one] | – | – | 0.23 µM | 212% | – | –
O=C(CN1C(=O)Cc2ccccc21)N1Cc2cn(S(=O)(=O)c3cnn(CC(F)F)c3)nc2C1 [Compound 2, 1-[2-(2-{[1-(2,2-difluoroethyl)-1H-pyrazol-4-yl]sulfonyl}-2H,4H,5H,6H-pyrrolo[3,4-c]pyrazol-5-yl)-2-oxoethyl]-2,3-dihydro-1H-indol-2-one] | – | – | 0.41 µM | 32% | – | –
O=C(Cn1c(=O)oc2ccccc21)N1Cc2cn(S(=O)(=O)c3cnn(CC(F)F)c3)nc2C1 [Compound 3, 3-[2-(2-{[1-(2,2-difluoroethyl)-1H-pyrazol-4-yl]sulfonyl}-2H,4H,5H,6H-pyrrolo[3,4-c]pyrazol-5-yl)-2-oxoethyl]-2,3-dihydro-1,3-benzoxazol-2-one] | – | – | 1.8 µM | 60% | – | –
O=C(Cn1c(=O)[nH]c2ccccc21)N1Cc2cn(S(=O)(=O)c3cnn(CC(F)F)c3)nc2C1 [Compound 4, 1-[2-(2-{[1-(2,2-difluoroethyl)-1H-pyrazol-4-yl]sulfonyl}-2H,4H,5H,6H-pyrrolo[3,4-c]pyrazol-5-yl)-2-oxoethyl]-2,3-dihydro-1H-1,3-benzodiazol-2-one] | – | – | 10 µM | 78% | – | –
O=C1COc2ccccc2C(C(=O)N2Cc3cn(S(=O)(=O)c4cnn(CC(F)F)c4)nc3C2)N1 (stereo not drawn) [Compound 5, 5-(2-{[1-(2,2-difluoroethyl)-1H-pyrazol-4-yl]sulfonyl}-2H,4H,5H,6H-pyrrolo[3,4-c]pyrazole-5-carbonyl)-2,3,4,5-tetrahydro-1,4-benzoxazepin-3-one] | – | – | 0.49 µM | 91% | – | –
O=C1Cc2ccccc2C(C(=O)N2Cc3cn(S(=O)(=O)c4cnn(CC(F)F)c4)nc3C2)N1 (stereo not drawn) [Compound 6, 1-(2-{[1-(2,2-difluoroethyl)-1H-pyrazol-4-yl]sulfonyl}-2H,4H,5H,6H-pyrrolo[3,4-c]pyrazole-5-carbonyl)-1,2,3,4-tetrahydroisoquinolin-3-one] | – | – | 4.4 µM | 84% | – | –
O=C1COc2c(F)cccc2C(C(=O)N2Cc3cn(S(=O)(=O)c4cnn(CC(F)F)c4)nc3C2)N1 (stereo not drawn) [Compound 7, 5-(2-{[1-(2,2-difluoroethyl)-1H-pyrazol-4-yl]sulfonyl}-2H,4H,5H,6H-pyrrolo[3,4-c]pyrazole-5-carbonyl)-9-fluoro-2,3,4,5-tetrahydro-1,4-benzoxazepin-3-one] | – | – | 1.8 µM | 66% | – | –
CC1(CC(=O)N2Cc3cn(S(=O)(=O)c4cnn(CC(F)F)c4)nc3C2)C(=O)Nc2ccccc21 (stereo not drawn) [Compound 8, 3-[2-(2-{[1-(2,2-difluoroethyl)-1H-pyrazol-4-yl]sulfonyl}-2H,4H,5H,6H-pyrrolo[3,4-c]pyrazol-5-yl)-2-oxoethyl]-3-methyl-2,3-dihydro-1H-indol-2-one] | – | – | 1.9 µM | 95% | – | –
O=C1Nc2ccccc2C1CC(=O)N1Cc2cn(S(=O)(=O)c3ccc4ncsc4c3)nc2C1 (stereo not drawn) [Compound 9, 3-{2-[2-(1,3-benzothiazole-6-sulfonyl)-2H,4H,5H,6H-pyrrolo[3,4-c]pyrazol-5-yl]-2-oxoethyl}-2,3-dihydro-1H-indol-2-one] | – | – | 0.028 µM | 161% | 0.1 µM | 87%
O=C1Nc2ccccc2C1CC(=O)N1Cc2cn(S(=O)(=O)c3ccc(OC(F)F)cc3)nc2C1 (stereo not drawn) [Compound 10, 3-(2-{2-[4-(difluoromethoxy)benzenesulfonyl]-2H,4H,5H,6H-pyrrolo[3,4-c]pyrazol-5-yl}-2-oxoethyl)-2,3-dihydro-1H-indol-2-one] | – | – | 0.078 µM | 129% | 0.014 µM | 165%
O=C(CN1C(=O)Cc2ccccc21)N1Cc2cn(S(=O)(=O)c3ccc(OC(F)F)cc3)nc2C1 [Compound 11, 1-(2-{2-[4-(difluoromethoxy)benzenesulfonyl]-2H,4H,5H,6H-pyrrolo[3,4-c]pyrazol-5-yl}-2-oxoethyl)-2,3-dihydro-1H-indol-2-one] | – | – | 1.7 µM | 77% | – | –
O=C1COc2ccccc2C(C(=O)N2Cc3cn(S(=O)(=O)c4ccc(OC(F)F)cc4)nc3C2)N1 (stereo not drawn) [Compound 12, 5-{2-[4-(difluoromethoxy)benzenesulfonyl]-2H,4H,5H,6H-pyrrolo[3,4-c]pyrazole-5-carbonyl}-2,3,4,5-tetrahydro-1,4-benzoxazepin-3-one] | – | – | 0.21 µM | 91% | – | –
